# How the values were obtained:
# interleukin 10 (IL-10) = assay: IL-10 in supernatants of HMO-pretreated PBMCs with or without RSV; type: cell-based, human; conditions: PBMCs in the presence or absence of RSV; FIGS. 7-10
# Description: (§1) Specifically, either 3′SL or 6′SL is added, at concentrations of 0.1 mg/mL, 0.2 mg/mL, or 0.5 mg/mL to fresh peripheral blood mononuclear cells (PBMCs) and incubated at 37° C. in 5% CO2 to pretreat the cells for approximately 24 hours. LNnT is added, at concentrations of 0.1 mg/mL, 0.2 mg/mL, or 1 mg/mL to PBMCs and incubated at 37° C. in 5% CO2 to pretreat the cells for approximately 24 hours. Lactose is included as a carbohydrate control. Matched endotoxin unit concentration controls are included to allow differentiation of ingredient effects from inherent low levels of endotoxin. Some variables are then incubated with RSV at a multiplicity of infection (MOI) of 0.1 for approximately 1 hour at 37° C. in 5% in CO2. Uninfected control variables are incubated with medium for approximately 1 hour at 37° C. in 5% CO2. After approximately one hour, fresh medium alone, or fresh medium containing the appropriate concentration of 3′SL, 6′SL, LNnT, lactose, or endotoxin is added to the appropriate tubes and the cells are incubated for 48 hours at 37° C. in 5% CO2. Supernatants are collected at 24 and 48 hours post-infection. Cytokines are measured in supernatants for each variable at 24 and 48 hours to assess the effects of HMOs on the early immune response to RSV. Cytokines are measured using custom Bio-Plex Human cytokine kits from Bio-Rad.
# H1N1 influenza virus [1] = type: cell-based; conditions: 10 mg/mL HMO; MDCK cells; FIG. 1
# [2] = system: human parainfluenza virus (HPIV3); type: cell-based; conditions: HMOs added at 1 mg/mL or 10 mg/mL; virus dose about 500-1,000 units/mL
# [3] = system: respiratory syncytial virus (RSV); type: cell-based; conditions: HMOs added at 1 mg/mL or 10 mg/mL; virus dose about 500-1,000 units/mL
# IP-10 = IP-10 in supernatants of HMO-pretreated, RSV-infected PBMCs; type: cell-based, human; conditions: for IP-10 in virus-infected variables: RSV MOI 0.1, 24 h pretreatment, both donors, FIGS. 3-6; for IP-10 in virus-infected variables / reducing inflammation caused by RSV: PBMCs; for reducing inflammation caused by RSV: pretreatment for 24 hours
# Description: as §1
# IP-10 is a CXC chemokine that attracts, binds to and activates the CXCR3 receptor on natural killer cells and memory T cells. IP-10 is expressed by monocytes and a number of other cells, and is induced by interferon. A positive correlation exists between RSV clinical disease severity in children (as measured by: length of hospital stay, fever, and number of days supplemental O2 is required) and serum IP-10. Therefore, a decrease in IP-10 signals a decrease in severity of RSV disease experienced.
# [4] = system: monocyte-derived cytokines; assay: monocyte-derived cytokines in supernatants of HMO-pretreated PBMCs with or without RSV; type: cell-based, human
# Description: as §1
# H1N1 influenza virus [5] = type: cell-based; conditions: for IC50 (mg HMO/mL) H1N1 Influenza: HMOs added at 1 mg/mL or 10 mg/mL, virus dose about 500-1,000 units/mL
# [6] = PBMCs in the presence or absence of the virus
Structure (SMILES),IL-10 concentration (interleukin 10 (IL-10)),inhibition of virus infectivity (H1N1 influenza virus [1]),IC50 (mg HMO/mL) HPIV3 [2],IC50 (mg HMO/mL) RSV [3],IP-10 in virus-infected variables (IP-10),IP-10 level compared with uninfected controls (IP-10; RSV-infected PBMCs),downregulation of IP-10 compared with 3′SL (IP-10; RSV-infected PBMCs),reducing inflammation caused by RSV (IP-10),production of monocyte-derived cytokines (immunomodulatory) ([4]; PBMCs in the absence of the virus),IC50 (mg HMO/mL) H1N1 Influenza (H1N1 influenza virus [5]),"RSV-induced IP-10, Donor B (IP-10; RSV-infected PBMCs, Donor B, 0.1-0.5 mg/mL)","RSV-induced IP-10, Donor E (IP-10; RSV-infected PBMCs, Donor E, 0.1-0.5 mg/mL)","production of monocyte-derived cytokines (immunomodulatory) [4, 6]",anti-viral activity against H1N1 influenza virus (H1N1 influenza virus [5]; HMO at 1 mg/mL)
"CC(=O)N[C@H]1[C@H]([C@H](O)[C@H](O)CO)O[C@@](OC[C@H]2O[C@@H](O[C@H]3[C@H](O)[C@@H](O)[C@H](O)O[C@@H]3CO)[C@H](O)[C@@H](O)[C@H]2O)(C(=O)O)C[C@@H]1O [6′SL, 6′-sialyllactose]",increases interleukin 10 (IL-10) concentration in a dose-dependent manner,approximately 60%,>10 mg HMO/mL,>10 mg HMO/mL,downregulates IP-10,reduce IP-10 to levels found in uninfected controls,more effective than 3′SL,effective,"induces and/or modifies the production of monocyte-derived cytokines such as IL-10, MIP-1β, Interferon-γ, IL-8, IL-1α, IL-1β, and IL-1ra",~10 mg HMO/mL,–,–,–,–
"CC(=O)N[C@H]1[C@H]([C@H](O)[C@H](O)CO)O[C@@](O[C@H]2[C@@H](O)[C@@H](CO)O[C@@H](O[C@H]3[C@H](O)[C@@H](O)C(O)O[C@@H]3CO)[C@@H]2O)(C(=O)O)C[C@@H]1O (stereo partly drawn) [3′SL, 3′-sialyllactose]",–,–,>10 mg HMO/mL,>10 mg HMO/mL,dampen RSV-induced IP-10,–,–,effective,–,~5 mg HMO/mL,not effective,downregulates RSV-induced IP-10,"induces and/or modifies the production of monocyte-derived cytokines such as MIP-1β, Interferon-γ, IL-8, and IL-1ra",inhibited
"CC(=O)N[C@H]1[C@H](O[C@H]2[C@@H](O)[C@@H](CO)O[C@@H](O[C@H]3[C@H](O)[C@@H](O)C(O)O[C@@H]3CO)[C@@H]2O)O[C@H](CO)[C@@H](O[C@@H]2O[C@H](CO)[C@H](O)[C@H](O)[C@H]2O)[C@@H]1O (mixture of isomers) [LNnT, lacto-N-neotetraose]",increases IL-10 concentration in a dose-dependent manner,–,–,>10 mg HMO/mL,clearly downregulates IP-10,reduce IP-10 to levels found in uninfected controls,more effective than 3′SL,effective,–,>10 mg HMO/mL,–,–,"induces and/or modifies the production of monocyte-derived cytokines such as IL-10, MIP-1β, Interferon-γ, IL-8, IL-1α, IL-1β, and IL-1ra",–

# Reference: patent US11311562B2, “Methods for reducing the incidence of oxidative stress using human milk oligosaccharides, vitamin c and anti-inflammatory agents” (priority 2010, dated 2022)
